Measured values from patent publication US20120022116A1, “COMPOSITIONS AND METHODS FOR THE TREATMENT OF PATHOLOGICAL CONDITION(S) RELATED TO GPR35 AND/OR GPR35-HERG COMPLEX” (priority 2010, published 2012).

How the values were obtained:
GPR35 [1] = target: T1, GPR35 (Homo sapiens, UniProt Q9HC97); experiment: Ca2+ mobilization assay (Fluo-4) in HEK-GPR35-Gqo5 cells; assay type: cell-based; conditions: for Ca2+ moblization (HEK-GPR35-Gqo5): HEK293 cells co-expressing GPR35 and Gqo5, Fluo-4, compounds 10 μM; for Ca2+ mobilization signal in cells co-expressing GPR35 and Gqo5: engineered HEK293, 10 μM
T1 construct: myc; expressed in transfected cells; host or cells: HEK293, transient co-transfection (Lipofectamine LTX)
T1 sequence (Q9HC97 whole entry): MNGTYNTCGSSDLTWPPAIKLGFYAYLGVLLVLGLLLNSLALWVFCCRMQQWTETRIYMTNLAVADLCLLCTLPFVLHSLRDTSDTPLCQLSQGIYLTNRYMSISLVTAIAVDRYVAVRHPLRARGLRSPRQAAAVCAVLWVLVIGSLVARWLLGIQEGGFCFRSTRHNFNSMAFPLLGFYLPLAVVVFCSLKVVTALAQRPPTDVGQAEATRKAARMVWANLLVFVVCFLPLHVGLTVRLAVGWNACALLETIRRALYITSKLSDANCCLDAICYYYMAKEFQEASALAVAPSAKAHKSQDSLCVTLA

GPR35 [2] = experiment: DMR desensitization / antagonism mode against GPR35 agonist-induced DMR in HT29 cells; assay type: cell-based, human; conditions: HT29 cells pretreated with compound, then GPR35 agonist
hERG channel [3] = target: hERG channel (Homo sapiens, UniProt Q12809); experiment: Automated patch clamp recording of hERG tail current (IonWorks); conditions: hERG tail current ratio post/pre-compound, 50 uM
hERG channel (Homo sapiens, UniProt Q12809), sequence (Q12809 whole entry): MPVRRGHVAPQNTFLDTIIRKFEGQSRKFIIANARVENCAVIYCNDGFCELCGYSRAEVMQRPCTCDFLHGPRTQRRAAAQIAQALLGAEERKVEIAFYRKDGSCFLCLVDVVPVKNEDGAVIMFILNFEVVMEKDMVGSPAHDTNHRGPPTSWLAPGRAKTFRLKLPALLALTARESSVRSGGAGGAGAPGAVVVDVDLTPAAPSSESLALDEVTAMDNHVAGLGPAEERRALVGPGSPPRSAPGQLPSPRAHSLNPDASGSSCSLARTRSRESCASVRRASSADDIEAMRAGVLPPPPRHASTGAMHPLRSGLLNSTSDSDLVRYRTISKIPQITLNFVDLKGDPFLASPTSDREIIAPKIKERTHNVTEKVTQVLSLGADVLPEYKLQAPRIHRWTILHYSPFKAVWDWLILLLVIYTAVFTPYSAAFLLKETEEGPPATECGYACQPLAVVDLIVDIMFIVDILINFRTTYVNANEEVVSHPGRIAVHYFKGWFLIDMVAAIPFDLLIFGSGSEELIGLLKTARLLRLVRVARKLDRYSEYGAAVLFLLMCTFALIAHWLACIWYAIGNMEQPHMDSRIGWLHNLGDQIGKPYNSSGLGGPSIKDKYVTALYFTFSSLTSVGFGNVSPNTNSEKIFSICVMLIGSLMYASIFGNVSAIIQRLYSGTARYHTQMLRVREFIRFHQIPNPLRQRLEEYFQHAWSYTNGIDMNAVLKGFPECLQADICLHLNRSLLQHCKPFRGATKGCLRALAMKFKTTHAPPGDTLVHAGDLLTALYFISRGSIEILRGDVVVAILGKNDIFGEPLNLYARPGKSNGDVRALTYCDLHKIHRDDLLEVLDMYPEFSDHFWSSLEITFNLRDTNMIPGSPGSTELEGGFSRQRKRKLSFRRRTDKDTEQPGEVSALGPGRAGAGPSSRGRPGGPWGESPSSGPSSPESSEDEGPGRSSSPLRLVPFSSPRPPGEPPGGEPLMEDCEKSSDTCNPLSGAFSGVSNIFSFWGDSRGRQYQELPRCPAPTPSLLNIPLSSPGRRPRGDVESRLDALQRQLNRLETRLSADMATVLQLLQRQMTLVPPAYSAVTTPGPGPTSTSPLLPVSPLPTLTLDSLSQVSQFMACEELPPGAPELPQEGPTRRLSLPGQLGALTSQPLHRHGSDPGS

hERG channel [4] = experiment: Cross-desensitization DMR assay against hERG activator mallotoxin-induced DMR in HT29 cells; conditions: HT29 cells pretreated with compound, then hERG activator mallotoxin

Row | Compound | Ca2+ moblization (HEK-GPR35-Gqo5) (GPR35 [1]) | Ca2+ mobilization signal in cells co-expressing GPR35 and Gqo5 (GPR35 [1]) | Desenstization to GPR35 agonist (GPR35 [2]) | Electrophysiology (HEK-hERG) (hERG channel [3]) | Desenstization to hERG activator (hERG channel [4])
1 | CN(CCO)c1ccc(C=Cc2ccc(C(=O)[O-])s2)cc1.[Li+] [Compound 26, 5-{2-[4-(N-methyl, N-2-hydroxyethyl-amino)phenyl]ethenyl}-thiophene-2-formate lithium] | active |  | desenstized | inactive | 
2 | OCc1ccc(-c2cccs2)s1 [Compound 27, 2,2′-bithiophene-5-methanol] | inactive |  | inactive | blocker | 
3 | O=C([O-])c1ccc(-c2ccc(/C=C/c3ccc(N(CCO)CCO)cc3)s2)s1.[Na+] [Compound 29] | active |  | desenstized | activator | partially desenstized
4 | O=C(O)c1cc(-c2ccc(F)cc2F)ccc1O [Diflunisal] | active | active | desenstized | activator | 
5 | O=C(O)c1ccccc1Nc1cccc(C(F)(F)F)c1 [Flufenamic acid] | active | active | desenstized | activator | desenstized
6 | O=C(O)c1cc(=O)c2ccccc2[nH]1 [Kynurenic acid] | inactive |  | desenstized | inactive | 
7 | Cc1ccc(Cl)c(Nc2ccccc2C(=O)O)c1Cl [Meclofenamate] | inactive |  | desenstized |  | partially desenstized
8 | O=C(O)c1cccnc1Nc1cccc(C(F)(F)F)c1 [Niflumic acid] | active | active | desenstized | activator | 
9 | O=C(O)c1cc(/N=N/c2ccc(S(=O)(=O)Nc3ccccn3)cc2)ccc1O [Sulfasalazine] | inactive |  | desenstized | inactive | 
10 | O=C1OC(OC(=O)c2cccnc2Nc2cccc(C(F)(F)F)c2)c2ccccc21 (centres unmarked) [Talniflumate] | inactive |  | desenstized | inactive | 
11 | N#C/C(=C\c1ccc(O)c(O)c1)C(N)=O [Tyrphostin 46] |  |  | desenstized | inactive | inactive
12 | N#C/C(=C\c1ccc(O)c(O)c1)C(N)=S [Tyrphostin 47] |  |  | desenstized | activator | partially desenstized
13 | N#CC(C#N)=C(N)/C(C#N)=C/c1cc(O)c(O)c(O)c1 [Tyrphostin 51] |  |  | desenstized | inactive | partially desenstized

Second part, led by results:

Row | Ca2+ moblization (HEK-GPR35-Gqo5) (GPR35 [1]) | Ca2+ mobilization signal in cells co-expressing GPR35 and Gqo5 (GPR35 [1]) | Compound | Desenstization to GPR35 agonist (GPR35 [2]) | Electrophysiology (HEK-hERG) (hERG channel [3]) | Desenstization to hERG activator (hERG channel [4])
14 | active |  | COC(=O)c1ccc(C=Cc2ccc(N(C)CCO)cc2)s1 [Compound 25, methyl-5-{2-[4-(N-methyl,N-2-hydroxyethyl-amino)phenyl]ethenyl}-thiophene-2-formate] | desenstized | inactive | 
15 | inactive |  | O=Cc1ccc(-c2ccc(CO)s2)s1 [Compound 28, 5-hydroxymethyl-5′-formyl-2,2′-bithiophene] | desenstized | inactive | 
16 | inactive |  | O=Cc1ccc(-c2cccs2)s1 [Compound 30, 2,2′-bithiophene-5-carboxaldehyde] | desenstized | blocker | 
17 | active | active | Cc1c(Nc2ncccc2C(=O)O)cccc1C(F)(F)F [Flunixin] | desenstized | activator | 
18 | active | active | O=C(O)c1cc([N+](=O)[O-])ccc1NCCCc1ccccc1 [NPPB] | desenstized | activator | 
19 | inactive |  | CC1=C(CC(=O)O)c2cc(F)ccc2/C1=C\c1ccc([S+](C)[O-])cc1 (centres unmarked) [Sulindac] | desenstized | blocker | 
20 | active | active | Cc1c(Cl)cccc1Nc1ccccc1C(=O)O [Tolfenamic acid] | desenstized | blocker | 
